Patent publication US6649637B2, “Inhibition of intracellular replication by pyridinylimidazoles” (priority 2001, dated 2003)
Like-named read-outs stand apart in the source and are kept apart here.

How the values were obtained:
[1] = test system: T. gondii; details: cited from earlier work
[2] = test system: T. gondii infected dendritic cells; type: cell-based, human
[3] = test system: mutant tachyzoite SBRRH2; assay: Replication of SB203580-resistant RH clone SBRRH2 in fibroblasts; type: cell-based, Toxoplasma gondii
[4] = test system: T. gondii RH strain tachyzoites; assay: [3H]methyluracil incorporation: intracellular tachyzoite replication in human fibroblasts, RH strain; type: cell-based, Toxoplasma gondii; details: drug added 6 hours after infection; for inhibition of intracellular RH strain tachyzoite replication: dose-dependent
[5] = test system: T. gondii strain RH; assay: Protection of fibroblast monolayers from T. gondii-mediated destruction
Source text: Photomicrographs were taken 5 days after treatment was begun.

[6] = test system: T. gondii Me49 strain tachyzoites; assay: [3H]methyluracil incorporation: intracellular tachyzoite replication in human fibroblasts, Me49 strain; type: cell-based, Toxoplasma gondii; details: for Me49 strain more susceptible to growth inhibition than RH strain: ratio of IC50 RH / Me49
[7] = test system: RH strain T. gondii; assay: Diamidino-2-phenylindole staining / microscopy of infected fibroblasts: tachyzoite and vacuole morphology; details: for tachyzoite morphology (bi-/multinucleated forms): diamidino-2-phenylindole staining
Protocol: Parasitophorous vacuoles and tachyzoite morphology were assessed by diamidino-2-phenylindole staining 24 hours later using an ultraviolet light with excitation at 410-430 nM.
Tachyzoites were released from infected fibroblasts by forced passage through a 27-gauge needle, and used within 2 hours of collection to infect new host cells. Tachyzoites were enumerated with a hemacytometer using Trypan blue dye. To evaluate nuclear morphology, infected cells were stained with diamidino-2phenylindole (Sigma) and examined by light microscopy at 400× magnification. To estimate the intensity of T. gondii infection, cytospin preparations of aliquots of cells in infected cultures were stained with Giemsa stain and examined by light microscopy using a 40× objective. At least 200 cells per condition were counted.

[8] = test system: extracellular T. gondii tachyzoites; assay: Incubation of extracellular tachyzoites with drug, wash, then [3H]uracil incorporation in fresh fibroblasts; type: cell-based, Toxoplasma gondii; details: 10 μM, extracellular tachyzoites incubated 1 hour, washed; at 48 hours
[9] = molecular target: human p38 MAPK (Homo sapiens, UniProt Q16539); details: cited from earlier work
human p38 MAPK, sequence (Q16539 whole entry): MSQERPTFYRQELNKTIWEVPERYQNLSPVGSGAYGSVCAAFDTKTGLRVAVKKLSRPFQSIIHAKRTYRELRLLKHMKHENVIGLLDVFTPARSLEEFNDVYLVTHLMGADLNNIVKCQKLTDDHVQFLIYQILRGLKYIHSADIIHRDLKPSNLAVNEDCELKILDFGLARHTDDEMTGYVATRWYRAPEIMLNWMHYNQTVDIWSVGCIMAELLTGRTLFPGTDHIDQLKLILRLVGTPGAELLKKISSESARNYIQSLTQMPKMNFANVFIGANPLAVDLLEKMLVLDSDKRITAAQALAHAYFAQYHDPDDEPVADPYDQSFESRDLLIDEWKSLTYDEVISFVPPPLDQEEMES

[10] = test system: T. gondii acyl-CoA:cholesterol acyltransferase; assay: Cholesterol esterification ([14C]oleate pulse labelling) in extracellular tachyzoites; type: biochemical, Toxoplasma gondii; details: 10 μM, extracellular RH tachyzoites, 7 hours
Protocol: (§1) The mean of triplicate replications with standard error bars is shown. “Control” is no drug treatment.
One experiment representative of 4 is shown for each measure.
Cholesterol esterification activity was assessed by pulse-labeling of cells using radiolabeled fatty acid as substrate. […] At the time of drug addition, acyl-CoA:cholesterol acyltransferase activity was stimulated with 25-hydroxycholesterol plus cholesterol and cells were pulse-labeled for 2 hours with 20 μl sodium [^14C]oleate-albumin complex. Lipids were extracted with hexane/isopropanol (3:2 ratio) and the organic solvents evaporated under a nitrogen stream. Lipids were resuspended in chloroform, spotted on TLC silica gel G plates (Fisher, Fairlawn, N.J.) and separated in hexane/ethyl ether/glacial acetic acid (80:20:1 ratio). Cholesterol ester content was determined by liquid scintillation and normalized as pmol ^14C/mg protein. […] After 3 days, cells were fixed in paraformaldehyde, rinsed in PBS, stained with filipin (Sigma) and examined by fluorescence microscopy using an excitation filter of 350-410 nm. Cholesterol content was determined in densitometric units measured with an Alpha Imager 2000 (Alpha Innotech Corporation, San Leandro, Calif.).

[11] = test system: T. gondii; assay: T. gondii replication in dendritic cells; type: cell-based, Toxoplasma gondii
[12] = test system: Me49 tachyzoites; assay: Stage conversion (tachyzoite to bradyzoite) by flow cytometry, Me49 strain; type: cell-based, Toxoplasma gondii; details: Me49, after 5 days of treatment
Source text: (§2) Tachyzoites were stained with murine monoclonal antibodies specific for tachyzoite protein (SAG-2, provided by Jacqueline Channon, Dartmouth) or bradyzoite-specific antibodies against p21 or p36 (32) followed by fixation with paraformaldehyde. Flow cytometric data were acquired on a FACS Calibur (Becton-Dickinson, Mountain View, Calif.) and analyzed using CellQuest software (Becton-Dickinson) with 5000 or more events evaluated for each condition. Analysis gates were set using appropriate antibody isotype controls, and dead cells were excluded based on light scatter characteristics.

[13] = test system: RH strain tachyzoites; assay: Tachyzoite cholesterol content (densitometric units); type: cell-based, Toxoplasma gondii; details: 10 μM
Protocol: as §1
Cholesterol esterification activity was assessed by pulse-labeling of cells using radiolabeled fatty acid as substrate. […] At the time of drug addition, acyl-CoA:cholesterol acyltransferase activity was stimulated with 25-hydroxycholesterol plus cholesterol and cells were pulse-labeled for 2 hours with 20 μl sodium [^14C]oleate-albumin complex. Lipids were extracted with hexane/isopropanol (3:2 ratio) and the organic solvents evaporated under a nitrogen stream. Lipids were resuspended in chloroform, spotted on TLC silica gel G plates (Fisher, Fairlawn, N.J.) and separated in hexane/ethyl ether/glacial acetic acid (80:20:1 ratio). Cholesterol ester content was determined by liquid scintillation and normalized as pmol ^14C/mg protein. For cytochemical staining of 3-hydroxysterols, fibroblasts were seeded on poly-lysine coated coverslips, infected with RH T. gondii tachyzoites and incubated with drugs as described. After 3 days, cells were fixed in paraformaldehyde, rinsed in PBS, stained with filipin (Sigma) and examined by fluorescence microscopy using an excitation filter of 350-410 nm. Cholesterol content was determined in densitometric units measured with an Alpha Imager 2000 (Alpha Innotech Corporation, San Leandro, Calif.).

[14] = test system: RH strain T. gondii; assay: Stage conversion (tachyzoite to bradyzoite) by flow cytometry, RH strain; type: cell-based, Toxoplasma gondii
Protocol: Bradyzoites highly express p36 (BSR4), and p21 in cell culture, and downregulate the tachyzoite-specific proteins SAG1 and SAG2 (38, 39). […] The drugs were replaced every 5 days. After 15 days, adherent, infected fibroblasts were recovered and freed intracellular organisms were analyzed by flow cytometry (FIG. 6A).
as §2

[15] = test system: RH T. gondii; assay: Combination with pyrimethamine: [3H]uracil incorporation in RH infected fibroblasts; type: cell-based, Toxoplasma gondii; details: SB203580 1 μM
Protocol: Fibroblasts were infected overnight and then treated with both drugs simultaneously or individually. Incorporated [^3H]methyuracil was measured 48 hours later. Data from one representative experiment is shown.
Pyrimethamine (Sigma) was dissolved in dimethylsulfoxide and added 1 hour after infection alone or in combination with other agents.

[16] = infected MOI 3 for 2 days, then 10 μM, 5 days after treatment was begun
[17] = single dose 10 μM 1 hour after infection, MOI 3, three days after infection
[18] = fibroblasts, [3H]methyluracil incorporation

## COc1cccc(-c2cc(=O)c3ccccc3o2)c1N [PD098059]
[1]
  effect on intracellular T. gondii replication (Roisin et al.): slightly reduced

## Oc1ccc(-c2nc(-c3ccc(F)cc3)c(-c3ccncc3)[nH]2)cc1 [SB202190, 4-(4-fluorophenyl)-2(4-hydroxphenyl)-5-(4 pyridyl)1H-imidazole]
[2]
  reversal of T. gondii mediated immunosuppression: significantly reversed immunosuppression
[3]
  cross-resistance of SB203580-resistant tachyzoites: Cross-resistance to SB202190 was observed
[4]; [3H]methyluracil incorporation, fibroblasts, estimated by linear interpolation, read-out: IC50 for inhibition of RH strain replication
  IC50: ~5000 nM
[4]
  inhibition of intracellular RH strain tachyzoite replication: significant inhibition
[5]; [16]
  state of monolayer (FIG. 6 legend): virtually intact
[5]; [17]
  state of infected fibroblast culture: healthy and confluent
[6]; [3H]methyluracil incorporation, fibroblasts, drug added 6 hours after infection, estimated by linear interpolation, read-out: IC50 for inhibition of Me49 strain replication
  IC50: ~200 nM
[6]
  Me49 strain more susceptible to growth inhibition than RH strain: ~25 fold

## CCc1nc(-c2ccc(OC)cc2)[nH]c1-c1ccncc1 [SB202474]
[2]
  reversal of T. gondii mediated immunosuppression: did not reverse immunosuppression
[7]
  tachyzoite morphology (bi-/multinucleated forms): did not induce binucleated forms
[8]
  reduction of [3H]uracil incorporation: < 15%
[5]; [16]
  state of monolayer (FIG. 6 legend): completely destroyed
[5]; [17]
  state of infected fibroblast culture: essentially destroyed
[9]
  p38 MAPK inhibitory activity: without significant p38 MAPK inhibitory effects
[9]; listed as SB202494
  p38 MAPK inhibitory activity: no anti-p38 MAPK activity
[6]; [18]
  effect on Me49 tachyzoite replication: no significant effect

## C[S+]([O-])c1ccc(-c2nc(-c3ccc(F)cc3)c(-c3ccncc3)[nH]2)cc1 (centres unmarked) [SB203580, 4(4-fluorophenyl)-2-(4-methylsulfinylphenyl)-5(4-pyridyl)1H-imidazole]
[2]
  reversal of T. gondii mediated immunosuppression: significantly reversed immunosuppression
[7]; after 3 to 5 days
  cyst-like structures in infected fibroblasts: developed cyst-like structures
[7]
  tachyzoite morphology (bi-/multinucleated forms): induced formation of tachyzoites with two or more nuclei
[10]
  acyl-CoA:cholesterol acyltransferase activity: did not interfere
[11]
  T. gondii replication in dendritic cells: does reduce
[12]
  SAG2 expression: decreased
  p21 expression: significantly increased
[3]; 10 μM
  inhibition of replication of SBRRH2 in fibroblasts: no detectable capacity to inhibit
[13]
  tachyzoite cholesterol content: only minimally reduced
[4]
  inhibition of intracellular RH strain tachyzoite replication: significantly inhibited
[14]; 10 μM SB203580 or 1 μg pyrimethamine, 15 days
  p36+ organisms (bradyzoite marker): significantly higher number
[14]; SB203580
  p21+ cells (bradyzoite marker): not evident
[14]; after 15 days of culture with SB203580, 100% at culture outset
  SAG2+ organisms (tachyzoite marker): < 15%
[5]; constant 10 μM, four weeks
  infected fibroblast monolayers under constant drug: not destroyed
[5]; [16]
  monolayer destroyed (FIG. 6 legend): approximately 50%
[5]; [17]
  infected fibroblast culture destroyed: approximately 50%
[6]
  Me49 strain more susceptible to growth inhibition than RH strain: approximately 12 fold
[15]
  inhibition of RH T. gondii replication, single agent: effective dose

## N#CC(=C(/N)Sc1ccccc1N)/C(C#N)=C(\N)Sc1ccccc1N [U0126]
[2]
  reversal of T. gondii mediated immunosuppression: did not reverse immunosuppression
[7]
  tachyzoite morphology (bi-/multinucleated forms): did not induce binucleated forms
[4]
  inhibition of intracellular RH strain tachyzoite replication: no significant effect
[6]; [18]
  effect on Me49 tachyzoite replication: no significant effect

## O=c1c(-c2ccc(O)cc2)coc2cc(O)cc(O)c12 [genistein]
[1]
  effect on intracellular T. gondii replication (Roisin et al.): no significant effect

## [O]=[V]([O-])([O-])[O-] [vanadate]
[5]; [17]
  state of infected fibroblast culture: essentially destroyed
